Source: patent publication US20190038628A1, “USE OF INHIBITORS OF THE ACTIVITY OR FUNCTION OF PI3K FOR THE TREATMENT OF PRIMARY SJOGREN'S SYNDROME” (Novartis AG, priority 2016, published 2019)

Assays:
PI3K/Akt pathway = test: pAkt in B cells in stimulated whole blood clinical samples after single oral administration; format: in vivo; conditions: healthy human subjects
Procedure: For assessment of the in vivo effects of compound A on human B cell activation measured as Akt phosphorylation vlinical samples were prepared from whole blood using a Na-Heparin monovette system.
Whole blood was then incubated with either anti-IgM/IL-4 (7.5 μg/ml of anti-IgM [Southern Biotech] and 7.5 ng/ml of IL-4 [R&D]) or with PBS (unstimulated sample). Incubation was performed using 95 μl of blood (in duplicates) in plate format within 1 h after blood collection. Cultures were mixed well by gently pipetting up and down and incubated at 37° C. (in incubator, 5% CO2). After 30 min whole blood was lysed and fixed with pre-warmed (37° C.) BD PhosFlow-Lyse/Fix buffer (1600 μl) for 20 minutes at 37° C. (water bath) in the dark. The lysed and fixed blood samples were immediately frozen and stored at −80° C. until further processing.
Clinical samples were processed within one week after blood collection. After thawing was completed (at 37° C. water-bath), samples were centrifuged at 502 g (1580 rpm) for 5 min at room temperature. Then pelleted cells were washed with 500 μL ice cold BD Phosflow Perm II buffer, mixed well and kept on ice for 30-35 minutes. […]
Samples were analyzed on the same day. […] Data was calculated as percent inhibition of pAkt relative to the baseline value.

Murine B cells = test: Mouse B cell proliferation following BCR stimulation; format: cell-based; conditions: Mouse spleen, stimulus Anti-IgM, mean of at least two experiments
Procedure: Murine B cells were stimulated via BCR by anti-IgM antibody in the presence of titrated amounts of compounds as described in (Julius et al 1984) and proliferation was assessed by incorporation of radioactive ^3H-Thymidine.

[1] = test system: Mouse BCR transgenic B cells; test: Antigen presentation of mouse BCR transgenic B cells (antigen-loading via MHC II); format: cell-based; conditions: Mouse BCR tg B cell; stimulus HEL; mean of at least four experiments; read-out: IC50 APC function
Text: Purification of CD19^+ splenic B cells from MD4 HEL BcR Tg mice MD4 HEL BcR transgenic B10.BR (MD4 B10.BR) mice were a kind gift from Prof. Jose Moreno (Research Unit on Autoimmune Diseases, Centro Medico Nacional Siglo XXI, Mexico).
The spleens were isolated from MD4 B10.BR and non-transgenic litter control B10.BR mice after sacrificed by exposure to excess amount of isoflurane. The isolated spleens were suspended in RPMI1640 (Invitrogen, #31870), and dissociated by GentleMACS Dissociator (Miltenyi Biotec), and filtrated with Cell Strainer (BD Falcon, 70 μm mesh, #352350). […] The purity was determined via the proportion of CD19 cells in the separated fraction in FACS analysis, and was more than 95%.
Purified B cells were re-suspended in 50 μl of ice-cold FACS buffer (PBS supplemented with 0.1% azide and 0.1% BSA). […] Stained cell samples were washed with 5 ml of ice-cold FACS buffer twice, and analyzed by FACS Calibur (BD Bioscience). […]
FACS Data was analyzed, and their mean fluorescence intensity (MFI) were calculated with FlowJo software (Tree Star Inc). The IC50 values were calculated with GraphPad PRISM ver 6.0 software (GraphPad Software Inc). […]

With `CCC(=O)N1CC[C@H](Nc2ncnc3c2CN(c2cnc(OC)c(C(F)(F)F)c2)CC3)C1` [Compound A, 1-{(S)-3-[6-(6-Methoxy-5-trifluoromethyl-pyridin-3-yl)-5,6,7,8-tetrahydro-pyrido[4,3-d]pyrimidin-4-ylamino]-pyrrolidin-1-yl}-propan-1-one] the “pathway inhibition (PI3K/Akt)” value (PI3K/Akt pathway; single administration of 80 mg, over 12 hours) was “greater than 80%”, the “inhibition of the PI3K/Akt pathway (in words)” value (PI3K/Akt pathway; single oral administration) was “dose-, concentration- and time-dependent inhibition” and the IC50 (Murine B cells) was 8 nM. For the same compound, the IC50 [1] was 395 nM.
